Our source for the IC50 values is ChEMBL document CHEMBL5528064, “Invention of MK-7845, a SARS-CoV-2 3CL Protease Inhibitor Employing a Novel Difluorinated Glutamine Mimic” (J Med Chem, 2024).

Each structure is given as a SMILES string.

As usually defined, the IC50 is the concentration needed to halve the response being measured.

Assay [1] deals with SARS-CoV-2. The assay can be described thus: Antiviral activity against replicon RNA harboring SARS-CoV-2 infected in human A549 cells assessed as inhibition of viral growth measured 40 hrs post treatment. The class given is functional, organism-based. The note with it: Severe acute respiratory syndrome coronavirus 2, A549, 40 h.
For assay [2], the system named is SARS-CoV-2. The assay can be described thus: Antiviral activity against SARS-CoV-2 Omicron B.1.1.529 harboring 3CLpro R346K mutant infected in human A549-hACE2-TMPRSS2 cells assessed as inhibition of virus induced cytopathic effect incubated for 72 hrs by celltiter glo assay. The class given is functional, organism-based, Severe acute respiratory syndrome coronavirus 2. For orientation: Protection from cytopathic effect is a common read-out in antiviral testing.

Assay [3] can be described thus: Inhibition of SARS-CoV-2 Omicron 3CLpro P132H mutant expressed in Escherichia coli (DE3) competent cells using CP488-ESATLQSGLRKAK-(CPQ2)-NH2 as substrate preincubated for 30 mins followed by substrate addition and measured after 4 hrs by FRET assay. On the set-up: species or system Severe acute respiratory syndrome coronavirus 2.
Assay [4] deals with SARS-CoV-2. Kind of assay: Antiviral activity against replicon RNA harboring SARS-CoV-2 infected in human A549 cells assessed as inhibition of viral growth. The class given is functional, organism-based. The note with it: Severe acute respiratory syndrome coronavirus 2, A549. (In general: A replicon is a self-replicating genome or part of one, used to study replication in cells.)

Turning to `CNC(=O)C(=O)[C@H](CCC(C)(F)F)NC(=O)[C@@H]1[C@H]2CCC[C@H]2CN1C(=O)[C@@H](NC(=O)OC)C(C)(C)C`, the IC50 is 15 nM in assay [1], 215 nM in assay [2] and 15 nM in assay [3].

Turning to `COC(=O)N[C@H](C(=O)N1CC[C@@H](C(F)(F)F)C[C@H]1C(=O)N[C@@H](CCC(C)(F)F)C(=O)C(=O)NC1CC1)C(C)(C)C`, in assay [1], the IC50 was 19 nM.

Consider `COC(=O)N[C@H](C(=O)N1CC2(C[C@H]1C(=O)N[C@@H](CCC(C)(F)F)C(=O)C(=O)NC1CC1)CC2(F)F)C(C)(C)C` (stereo not given in full), for which the IC50 in assay [1] stood at 33 nM.

On to `CC(C)(C)NC(=O)N[C@H](C(=O)N1C[C@H]2[C@@H]([C@H]1C(=O)N[C@@H](C[C@@H]1CCNC1=O)C(=O)C(N)=O)C2(C)C)C(C)(C)C`, for which the IC50 in assay [4] turned out to be 7500 nM.

With `COC(=O)N[C@H](C(=O)N1CCC2(CC2)C[C@H]1C(=O)N[C@@H](CCC(C)(F)F)C(=O)C(=O)NC1CC1)C(C)(C)C`, the IC50 in assay [1] came to 20 nM.

Take `CNC(=O)C(=O)[C@H](CCC(C)(F)F)NC(=O)[C@@H]1C[C@H](C(F)(F)F)CCN1C(=O)[C@@H](NC(=O)OC)C(C)(C)C`: in assay [1], the IC50 came out at 12 nM.

Regarding `COC(=O)N[C@H](C(=O)N1C[C@@H]2CCC[C@@H]2[C@H]1C(=O)N[C@@H](CCC(C)(F)F)C(=O)C(=O)NC1CC1)C(C)(C)C`, in assay [1], the IC50 stood at 18 nM.

Regarding `COC(=O)N[C@H](C(=O)N1C[C@H]2[C@@H]([C@H]1C(=O)N[C@@H](CCC(C)(F)F)C(=O)C(=O)NC1CC1)C21CCOCC1)C(C)(C)C`, the IC50 in assay [1] amounted to 32 nM.
